Results taken from patent US11267812B2 (Mirati Therapeutics, Inc., priority 2016, dated 2022).

system: Phospho-ERK in NCI-H358 cells expressing KRas G12C; assay: Cellular inhibition of KRas G12C by Phospho-ERK measurement in NCI-H358 cells; assay type: cell-based; details: Homo sapiens, NCI-H358, 3 h, read-out: IC50 (pERK(Thr202/Tyr204) normalized with GAPDH)
Protocol: The cellular inhibition of KRAs G12C by exemplary compounds of the present invention was determined by measuring the amount of a downstream marker of KRas activity, phosphorylated ERK (“Phospho-ERK”).
NCI-H358 cells (ATCC CRL-5807) express KRas G12C and were grown in RPMI medium supplemented with 10% fetal bovine serum, penicillin/streptomycin and 10 mM HEPES. Cells were plated in poly-D-Lysine coated 96-well plates at a concentration of 50,000 cells/well and allowed to attach for 8-12 hours. Diluted compounds were then added at a final concentration of 0.5% DMSO. After 3 hours, the medium was removed, 150 μL of 4% formaldehyde was added and the plates were incubated for 20 minutes. The plates were washed with PBS, and permeabilized using 150 μL of ice cold 100% methanol for 10 minutes. Non-specific antibody binding to the plates was blocked using 100 μL Licor Blocking Buffer (Li-Cor Biotechnology, Lincoln Nebr.) for 1 hour at room temperature. Positive control samples and samples lacking cells were parallel processed with test samples as standards.
The amount Phospho-ERK was determined using an antibody specific for the phosphorylated form of ERK and compared to the amount of GAPDH. Primary antibodies used for detection were added as follows: Phospho-ERK (Cell Signaling cs9101) diluted 1:500 and GAPDH (Millipore MAB374) diluted 1:5000 in Licor block+0.05% Tween 20. The plates were incubated for 2 hours at room temperature. The plates were washed with PBS+0.05% Tween 20.
Secondary antibodies used to visualize primary antibodies were added as follows: Anti-rabbit-680 diluted 1:1000 and Anti-mouse-800 diluted 1:1000 in Licor Block+0.050 Tween 20 and incubated for 1 hour at room temperature. The plates were washed with PBS+0.05% o Tween 20. A100 L aliquot of PBS was added to each well and the plates were read on a LICOR AERIUS plate reader.
The pERK(Thr202/Tyr204) signal was normalized with the GAPDH signal and percent of DMSO control values were calculated. IC50 values were generated using a 4 parameter fit of the dose response curve. Key: “A”≥0.001-≤1 μM; “B”[…] and ND=not determined.

Row | SMILES | IC50 [nM]
1 | C=CC(=O)N1CCN(c2nc(OC[C@H]3CCCN3C)nc3c2CCN(c2cc(O)cc4ccccc24)C3)CC1 [Example 187, (R)-1-(4-(7-(3-hydroxynaphthalen-1-yl)-2-((1-methylpyrrolidin-2-yl)methoxy)-5,6,7,8-tetrahydropyrido[3,4-d]pyrimidin-4-yl)piperazin-1-yl)prop-2-en-1-one] | 1 to 1000

same assay, conditions: Homo sapiens; NCI-H358 cells, 3 hours compound treatment; read-out: IC50 (pERK(Thr202/Tyr204) normalized with GAPDH)

Row | SMILES | IC50 [nM]
2 | C=CC(=O)N1CCN(c2nc(OCCCN3CCOCC3)nc3c2CCN(c2cc(O)ccc2OC(F)(F)F)C3)CC1 [Example 90, 1-(4-(7-(5-hydroxy-2-(trifluoromethoxy)phenyl)-2-(3-morpholinopropoxy)-5,6,7,8-tetrahydropyrido[3,4-d]pyrimidin-4-yl)piperazin-1-yl)prop-2-en-1-one] | 1 to 1000
3 | C=CC(=O)N1CCN(c2nc(O[C@H](C)CN(C)C)nc3c2CCN(c2c(C)ccc4[nH]ncc24)C3)CC1CC#N (stereo partly drawn) [Example 152, 2-[4-[2-[(1R)-2-(dimethylamino)-1-methyl-ethoxy]-7-(5-methyl-1H-indazol-4-yl)-6,8-dihydro-5H-pyrido[3,4-d]pyrimidin-4-yl]-1-prop-2-enoyl-piperazin-2-yl]acetonitrile] | 1 to 1000
4 | C=CC(=O)N1CCN(c2nc(OCCCN3CCOCC3)nc3c2CCN(c2cc(O)cc4ccccc24)C3)CC1 [Example 74, 1-(4-(7-(3-hydroxynaphthalen-1-yl)-2-(3-morpholinopropoxy)-5,6,7,8-tetrahydropyrido[3,4-d]pyrimidin-4-yl)piperazin-1-yl)prop-2-en-1-one] | 1 to 1000
5 | C=CC(=O)N1CCN(c2nc(OC[C@@H]3CCCN3C)nc3c2CCN(c2ccccc2OC(F)(F)F)C3)CC1CC#N (stereo partly drawn) [Example 211, 2-(1-acryloyl-4-(2-(((S)-1-methylpyrrolidin-2-yl)methoxy)-7-(2-(trifluoromethoxy)phenyl)-5,6,7,8-tetrahydropyrido[3,4-d]pyrimidin-4-yl)piperazin-2-yl)acetonitrile] | 1 to 1000
6 | C=CC(=O)N1CCN(c2nc(OC[C@@H]3CCCCN3C)nc3c2CCN(c2cc(O)cc4ccccc24)C3)CC1 [Example 196, (S)-1-(4-(7-(3-hydroxynaphthalen-1-yl)-2-((1-methylpiperidin-2-yl)methoxy)-5,6,7,8-tetrahydropyrido[3,4-d]pyrimidin-4-yl)piperazin-1-yl)prop-2-en-1-one] | 1 to 1000
7 | C=CC(=O)N1CCN(c2nc(O[C@H](C)CN3CCOCC3)nc3c2CCN(c2cc(O)cc4ccccc24)C3)CC1 [Example 56, (R)-1-(4-(7-(3-hydroxynaphthalen-1-yl)-2-((1-morpholinopropan-2-yl)oxy)-5,6,7,8-tetrahydropyrido[3,4-d]pyrimidin-4-yl)piperazin-1-yl)prop-2-en-1-one] | 1 to 1000
8 | C=CC(=O)N1CCN(c2nc(OC[C@@H]3CN(C)CCN3)nc3c2CCN(c2cccc4ccccc24)C3)CC1CC#N (stereo partly drawn) [Example 223, 2-(1-acryloyl-4-(2-(((S)-4-methylpiperazin-2-yl)methoxy)-7-(naphthalen-1-yl)-5,6,7,8-tetrahydropyrido[3,4-d]pyrimidin-4-yl)piperazin-2-yl)acetonitrile] | 1 to 1000
9 | C=CC(=O)N1CCN(c2nc(OCCN(CC)CC)nc3c2CCN(c2cc(O)cc4ccccc24)C3)CC1 [Example 102] | 1 to 1000
10 | C=CC(=O)N1CCN(c2nc(OC[C@H]3CN(C)CCO3)nc3c2CCN(c2cccc4ccccc24)C3)CC1CC#N (stereo partly drawn) [Example 270, 2-(1-acryloyl-4-(2-(((R)-4-methylmorpholin-2-yl)methoxy)-7-(naphthalen-1-yl)-5,6,7,8-tetrahydropyrido[3,4-d]pyrimidin-4-yl)piperazin-2-yl)acetonitrile] | 1 to 1000
11 | C=CC(=O)N1CCN(c2nc(OCCCN3CCCC3)nc3c2CCN(c2cc(O)cc4ccccc24)C3)CC1 [Example 39, 1-(4-(7-(3-hydroxynaphthalen-1-yl)-2-(3-(pyrrolidin-1-yl)propoxy)-5,6,7,8-tetrahydropyrido[3,4-d]pyrimidin-4-yl)piperazin-1-yl)prop-2-en-1-one] | 1 to 1000
12 | C=CC(=O)N1CCN(c2nc(OC(C)CCN(C)C)nc3c2CCN(c2cc(O)cc4ccccc24)C3)CC1 (centres unmarked) [Example 21, 1-(4-(2-((4-(dimethylamino)butan-2-yl)oxy)-7-(3-hydroxynaphthalen-1-yl)-5,6,7,8-tetrahydropyrido[3,4-d]pyrimidin-4-yl)piperazin-1-yl)prop-2-en-1-one] | 1 to 1000
13 | C=CC(=O)N1CCN(c2nc(O[C@H](C)CN3CCCC3)nc3c2CCN(c2cc(O)cc4ccccc24)C3)CC1 [Example 120, (R)-1-(4-(7-(3-hydroxynaphthalen-1-yl)-2-((1-(pyrrolidin-1-yl)propan-2-yl)oxy)-5,6,7,8-tetrahydropyrido[3,4-d]pyrimidin-4-yl)piperazin-1-yl)prop-2-en-1-one] | 1 to 1000
14 | C=CC(=O)N1CCN(c2nc(O[C@H](C)CN3CC[C@H](OC)C3)nc3c2CCN(c2cc(O)cc4ccccc24)C3)CC1 [Example 64, 1-(4-(7-(3-hydroxynaphthalen-1-yl)-2-(((R)-1-((S)-3-methoxypyrrolidin-1-yl)propan-2-yl)oxy)-5,6,7,8-tetrahydropyrido[3,4-d]pyrimidin-4-yl)piperazin-1-yl)prop-2-en-1-one] | 1 to 1000
15 | C=CC(=O)N1CCN(c2nc(OC[C@@H]3CCN(C)C3)nc3c2CCN(c2cc(O)cc4ccccc24)C3)CC1CC#N (stereo partly drawn) [Example 179, 2-[4-[7-(3-hydroxy-1-naphthyl)-2-[[(3R)-1-methylpyrrolidin-3-yl]methoxy]-6,8-dihydro-5H-pyrido[3,4-d]pyrimidin-4-yl]-1-prop-2-enoyl-piperazin-2-yl]acetonitrile] | 1 to 1000
16 | C=CC(=O)N1CCN(c2nc(OC[C@@H]3CCCN3CCOC)nc3c2CCN(c2cccc4ccccc24)C3)CC1CC#N (stereo partly drawn) [Example 266, 2-(1-acryloyl-4-(2-(((S)-1-(2-methoxyethyl)pyrrolidin-2-yl)methoxy)-7-(naphthalen-1-yl)-5,6,7,8-tetrahydropyrido[3,4-d]pyrimidin-4-yl)piperazin-2-yl)acetonitrile] | 1 to 1000
17 | C=CC(=O)N1CCN(c2nc(OC[C@@H]3CN(C)CCO3)nc3c2CCN(c2cccc4ccccc24)C3)CC1CC#N (stereo partly drawn) [Example 271, 2-(1-acryloyl-4-(2-(((S)-4-methylmorpholin-2-yl)methoxy)-7-(naphthalen-1-yl)-5,6,7,8-tetrahydropyrido[3,4-d]pyrimidin-4-yl)piperazin-2-yl)acetonitrile] | 1 to 1000
18 | C=CC(=O)N1CCN(c2nc(O[C@@H]3CCCN(C)C3)nc3c2CCN(c2cc(O)cc4ccccc24)C3)CC1 [Example 67, (R)-1-(4-(7-(3-hydroxynaphthalen-1-yl)-2-((1-methylpiperidin-3-yl)oxy)-5,6,7,8-tetrahydropyrido[3,4-d]pyrimidin-4-yl)piperazin-1-yl)prop-2-en-1-one] | 1 to 1000
19 | C=CC(=O)N1CCN(c2nc(O[C@H](C)CN(C)C)nc3c2CCN(c2cc(O)cc4ccccc24)C3)CC1 [Example 19, (R)-1-(4-(2-((1-(dimethylamino)propan-2-yl)oxy)-7-(3-hydroxynaphthalen-1-yl)-5,6,7,8-tetrahydropyrido[3,4-d]pyrimidin-4-yl)piperazin-1-yl)prop-2-en-1-one] | 1 to 1000
20 | C=CC(=O)N1CCN(c2nc(OC[C@@H]3CCCN3C)nc3c2CCN(c2ccc(F)c4ccccc24)C3)CC1CC#N (stereo partly drawn) [Example 246, 2-[4-[7-(4-fluoro-1-naphthyl)-2-[[(2S)-1-methylpyrrolidin-2-yl]methoxy]-6,8-dihydro-5H-pyrido[3,4-d]pyrimidin-4-yl]-1-prop-2-enoyl-piperazin-2-yl]acetonitrile] | 1 to 1000
21 | C=CC(=O)N1CCN(c2nc(OC[C@@H]3CCCN3C)nc3c2CCN(c2c(C(F)(F)F)ccc4[nH]ncc24)C3)CC1 [Example 156, (S)-1-(4-(2-((1-methylpyrrolidin-2-yl)methoxy)-7-(5-(trifluoromethyl)-1H-indazol-4-yl)-5,6,7,8-tetrahydropyrido[3,4-d]pyrimidin-4-yl)piperazin-1-yl)prop-2-en-1-one] | 1 to 1000
22 | C=CC(=O)N1CCN(c2nc(OC[C@@H]3CCCN3C)nc3c2CCN(c2cccc4cc(F)ccc24)C3)CC1CC#N (stereo partly drawn) [Example 259, 2-[4-[7-(6-fluoro-1-naphthyl)-2-[[(2S)-1-methylpyrrolidin-2-yl]methoxy]-6,8-dihydro-5H-pyrido[3,4-d]pyrimidin-4-yl]-1-prop-2-enoyl-piperazin-2-yl]acetonitrile] | 1 to 1000
23 | C=CC(=O)N1CCN(c2nc(OCCCCN(C)C)nc3c2CCN(c2cc(O)cc4ccccc24)C3)CC1 [Example 40, 1-(4-(2-(4-(dimethylamino)butoxy)-7-(3-hydroxynaphthalen-1-yl)-5,6,7,8-tetrahydropyrido[3,4-d]pyrimidin-4-yl)piperazin-1-yl)prop-2-en-1-one] | 1 to 1000
